Assay results as given in patent US11254663B2 (BRISTOL-MYERS SQUIBB COMPANY, priority 2019, dated 2022).

Each compound was assayed against FXR (Homo sapiens (Human), UniProt Q96RI1) (assay: FXR EC50 (FXR agonist potency reported with each Example)).
Assay type: cell-based

FXR, sequence (Q96RI1 262-486): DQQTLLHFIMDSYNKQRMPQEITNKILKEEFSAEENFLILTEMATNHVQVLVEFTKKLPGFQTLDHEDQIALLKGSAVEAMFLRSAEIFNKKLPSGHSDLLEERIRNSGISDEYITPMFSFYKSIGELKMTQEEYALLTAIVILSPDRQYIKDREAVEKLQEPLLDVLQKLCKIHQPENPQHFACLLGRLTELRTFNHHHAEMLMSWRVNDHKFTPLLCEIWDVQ

Compound | EC50 [nM]
O=C(N(CC12CCC(c3noc(C(F)F)n3)(CC1)CC2)c1cccc(-c2nnc(C3CC3)o2)c1)C12CC(F)(C1)C2 [Example 156, N-(3-(5-cyclopropyl-1,3,4-oxadiazol-2-yl)phenyl)-N-((4-(5-(difluoromethyl)-1,2,4-oxadiazol-3-yl)bicyclo[2.2.2]octan-1-yl)methyl)-3-fluorobicyclo[1.1.1]pentane-1-carboxamide] | 103
CC(C)(C)c1nc(C23CCC(CN(C(=O)C45CC(F)(C4)C5)c4cccc(-c5nnc(C6CC6)o5)c4)(CC2)CC3)no1 [Example 157, N-((4-(5-(tert-butyl)-1,2,4-oxadiazol-3-yl)bicyclo[2.2.2]octan-1-yl)methyl)-N-(3-(5-cyclopropyl-1,3,4-oxadiazol-2-yl)phenyl)-3-fluorobicyclo[1.1.1]pentane-1-carboxamide] | 43
O=C(N(CC12CCC(c3nc(C4CC4)no3)(CC1)CC2)c1cccc(-c2cnn(S(=O)(=O)C3CC3)c2)c1)C12CC(F)(C1)C2 [Example 158, N-((4-(3-cyclopropyl-1,2,4-oxadiazol-5-yl)bicyclo[2.2.2]octan-1-yl)methyl)-N-(3-(1-(cyclopropylsulfonyl)-1H-pyrazol-4-yl)phenyl)-3-fluorobicyclo[1.1.1]pentane-1-carboxamide] | 43
CS(=O)(=O)n1cc(-c2cccc(N(CC34CCC(c5nc(C6CC6)no5)(CC3)CC4)C(=O)C34CC(F)(C3)C4)c2)cn1 [Example 159, N-((4-(3-cyclopropyl-1,2,4-oxadiazol-5-yl)bicyclo[2.2.2]octan-1-yl)methyl)-3-fluoro-N-(3-(1-(methylsulfonyl)-1H-pyrazol-4-yl)phenyl)bicyclo[1.1.1]pentane-1-carboxamide] | 73
O=C(N(CC12CCC(c3nc(C4CC4)no3)(CC1)CC2)c1cccc(-c2cnn(C(F)F)c2)c1)C12CC(F)(C1)C2 [Example 160, N-((4-(3-cyclopropyl-1,2,4-oxadiazol-5-yl)bicyclo[2.2.2]octan-1-yl)methyl)-N-(3-(1-(difluoromethyl)-1H-pyrazol-4-yl)phenyl)-3-fluorobicyclo[1.1.1]pentane-1-carboxamide] | 43
O=C(N(CC12CCC(c3nc(C4CC4)no3)(CC1)CC2)c1cccc(-c2cnn(CC(F)F)c2)c1)C12CC(F)(C1)C2 [Example 161, N-((4-(3-cyclopropyl-1,2,4-oxadiazol-5-yl)bicyclo[2.2.2]octan-1-yl)methyl)-N-(3-(1-(2,2-difluoroethyl)-1H-pyrazol-4-yl)phenyl)-3-fluorobicyclo[1.1.1]pentane-1-carboxamide] | 96
O=C(N(CC12CCC(c3nc(C4CC4)no3)(CC1)CC2)c1cccc(-c2cnn(CC(F)(F)F)c2)c1)C12CC(F)(C1)C2 [Example 162, N-((4-(3-cyclopropyl-1,2,4-oxadiazol-5-yl)bicyclo[2.2.2]octan-1-yl)methyl)-3-fluoro-N-(3-(1-(2,2,2-trifluoroethyl)-1H-pyrazol-4-yl)phenyl)bicyclo[1.1.1]pentane-1-carboxamide] | 116
CC(C)c1nc(-c2cccc(N(CC34CCC(c5cc(C6CC6)nn5C)(CC3)CC4)C(=O)C34CC(F)(C3)C4)c2)no1 [Example 163, N-((4-(3-cyclopropyl-1-methyl-1H-pyrazol-5-yl)bicyclo[2.2.2]octan-1-yl)methyl)-3-fluoro-N-(3-(5-isopropyl-1,2,4-oxadiazol-3-yl)phenyl)bicyclo[1.1.1]pentane-1-carboxamide] | 156
Cn1nc(C2CC2)cc1C12CCC(CN(C(=O)C34CC(F)(C3)C4)c3cccc(-c4noc(C(F)F)n4)c3)(CC1)CC2 [Example 164, N-((4-(3-cyclopropyl-1-methyl-1H-pyrazol-5-yl)bicyclo[2.2.2]octan-1-yl)methyl)-N-(3-(5-(difluoromethyl)-1,2,4-oxadiazol-3-yl)phenyl)-3-fluorobicyclo[1.1.1]pentane-1-carboxamide] | 104
Cn1nc(C2CC2)cc1C12CCC(CN(C(=O)C34CC(F)(C3)C4)c3cccc(-c4noc(C(C)(C)C)n4)c3)(CC1)CC2 [Example 165, N-(3-(5-(tert-butyl)-1,2,4-oxadiazol-3-yl)phenyl)-N-((4-(3-cyclopropyl-1-methyl-1H-pyrazol-5-yl)bicyclo[2.2.2]octan-1-yl)methyl)-3-fluorobicyclo[1.1.1]pentane-1-carboxamide] | 124
Cn1nc(C2CC2)cc1C12CCC(CN(C(=O)C34CC(F)(C3)C4)c3cccc(-c4noc(C5(C)CC5)n4)c3)(CC1)CC2 [Example 166, N-((4-(3-cyclopropyl-1-methyl-1H-pyrazol-5-yl)bicyclo[2.2.2]octan-1-yl)methyl)-3-fluoro-N-(3-(5-(1-methylcyclopropyl)-1,2,4-oxadiazol-3-yl)phenyl)bicyclo[1.1.1]pentane-1-carboxamide] | 82
Cn1nc(C23CCC(CN(C(=O)C45CC(F)(C4)C5)c4cccc(-c5noc(C(C)(C)C)n5)c4)(CC2)CC3)cc1C1CC1 [Example 167, N-(3-(5-(tert-butyl)-1,2,4-oxadiazol-3-yl)phenyl)-N-((4-(5-cyclopropyl-1-methyl-1H-pyrazol-3-yl)bicyclo[2.2.2]octan-1-yl)methyl)-3-fluorobicyclo[1.1.1]pentane-1-carboxamide] | 69
Cn1nc(C23CCC(CN(C(=O)C45CC(F)(C4)C5)c4cccc(-c5noc(C(F)F)n5)c4)(CC2)CC3)cc1C1CC1 [Example 168, N-((4-(5-cyclopropyl-1-methyl-1H-pyrazol-3-yl)bicyclo[2.2.2]octan-1-yl)methyl)-N-(3-(5-(difluoromethyl)-1,2,4-oxadiazol-3-yl)phenyl)-3-fluorobicyclo[1.1.1]pentane-1-carboxamide] | 111
CC(C)c1nc(-c2cccc(N(CC34CCC(c5cc(C6CC6)n(C)n5)(CC3)CC4)C(=O)C34CC(F)(C3)C4)c2)no1 [Example 169, N-((4-(5-cyclopropyl-1-methyl-1H-pyrazol-3-yl)bicyclo[2.2.2]octan-1-yl)methyl)-3-fluoro-N-(3-(5-isopropyl-1,2,4-oxadiazol-3-yl)phenyl)bicyclo[1.1.1]pentane-1-carboxamide] | 98
Cn1nc(C23CCC(CN(C(=O)C45CC(F)(C4)C5)c4cccc(-c5noc(C6CC6)n5)c4)(CC2)CC3)cc1C1CC1 [Example 170, N-(3-(5-cyclopropyl-1,2,4-oxadiazol-3-yl)phenyl)-N-((4-(5-cyclopropyl-1-methyl-1H-pyrazol-3-yl)bicyclo[2.2.2]octan-1-yl)methyl)-3-fluorobicyclo[1.1.1]pentane-1-carboxamide] | 74
CC(C)(C)c1noc(C23CCC(CN(C(=O)C45CC(F)(C4)C5)c4cccc(-c5noc(C6CC6)n5)c4)(CC2)CC3)n1 [Example 171, N-((4-(3-(tert-butyl)-1,2,4-oxadiazol-5-yl)bicyclo[2.2.2]octan-1-yl)methyl)-N-(3-(5-cyclopropyl-1,2,4-oxadiazol-3-yl)phenyl)-3-fluorobicyclo[1.1.1]pentane-1-carboxamide] | 37.6
O=C(N(CC12CCC(c3nc(C(F)F)no3)(CC1)CC2)c1cccc(-c2noc(C3CC3)n2)c1)C12CC(F)(C1)C2 [Example 172, N-(3-(5-cyclopropyl-1,2,4-oxadiazol-3-yl)phenyl)-N-((4-(3-(difluoromethyl)-1,2,4-oxadiazol-5-yl)bicyclo[2.2.2]octan-1-yl)methyl)-3-fluorobicyclo[1.1.1]pentane-1-carboxamide] | 154
CC1(c2nc(-c3cccc(N(CC45CCC(c6nc(C(F)F)no6)(CC4)CC5)C(=O)C45CC(F)(C4)C5)c3)no2)COC1 [Example 173, N-((4-(3-(difluoromethyl)-1,2,4-oxadiazol-5-yl)bicyclo[2.2.2]octan-1-yl)methyl)-3-fluoro-N-(3-(5-(3-methyloxetan-3-yl)-1,2,4-oxadiazol-3-yl)phenyl)bicyclo[1.1.1]pentane-1-carboxamide] | 139
CC(C)(C)c1noc(C23CCC(CN(C(=O)C45CC(F)(C4)C5)c4cccc(-c5noc(C6(C)COC6)n5)c4)(CC2)CC3)n1 [Example 174, N-((4-(3-(tert-butyl)-1,2,4-oxadiazol-5-yl)bicyclo[2.2.2]octan-1-yl)methyl)-3-fluoro-N-(3-(5-(3-methyloxetan-3-yl)-1,2,4-oxadiazol-3-yl)phenyl)bicyclo[1.1.1]pentane-1-carboxamide] | 40
CC(C)c1noc(C23CCC(CN(C(=O)C45CC(F)(C4)C5)c4cccc(-c5noc(C6(C)CC6)n5)c4)(CC2)CC3)n1 [Example 175, 3-fluoro-N-((4-(3-isopropyl-1,2,4-oxadiazol-5-yl)bicyclo[2.2.2]octan-1-yl)methyl)-N-(3-(5-(1-methylcyclopropyl)-1,2,4-oxadiazol-3-yl)phenyl)bicyclo[1.1.1]pentane-1-carboxamide] | 54
CC(C)(C)c1noc(C23CCC(CN(C(=O)C45CC(F)(C4)C5)c4cccc(-c5noc(C6(C)CC6)n5)c4)(CC2)CC3)n1 [Example 176, N-((4-(3-(tert-butyl)-1,2,4-oxadiazol-5-yl)bicyclo[2.2.2]octan-1-yl)methyl)-3-fluoro-N-(3-(5-(1-methylcyclopropyl)-1,2,4-oxadiazol-3-yl)phenyl)bicyclo[1.1.1]pentane-1-carboxamide] | 24
CC(C)(C)c1nc(C23CCC(CN(C(=O)C45CC(F)(C4)C5)c4cccc(-c5noc(C6(C)CC6)n5)c4)(CC2)CC3)no1 [Example 177, N-((4-(5-(tert-butyl)-1,2,4-oxadiazol-3-yl)bicyclo[2.2.2]octan-1-yl)methyl)-3-fluoro-N-(3-(5-(1-methylcyclopropyl)-1,2,4-oxadiazol-3-yl)phenyl)bicyclo[1.1.1]pentane-1-carboxamide] | 33
CC1(c2nc(-c3cccc(N(CC45CCC(c6noc(C(F)F)n6)(CC4)CC5)C(=O)C45CC(F)(C4)C5)c3)no2)CC1 [Example 178, N-((4-(5-(difluoromethyl)-1,2,4-oxadiazol-3-yl)bicyclo[2.2.2]octan-1-yl)methyl)-3-fluoro-N-(3-(5-(1-methylcyclopropyl)-1,2,4-oxadiazol-3-yl)phenyl)bicyclo[1.1.1]pentane-1-carboxamide] | 73
